Data set [1] in a line: Visual solubility of DPh-BTBT in solvent for organic transistor production. The procedure: (§1) The resulting mixture was heated in a nitrogen atmosphere under a light-shielding condition at 100° C. for about 6 hours, preparing a composition for organic transistor production. With respect to the resulting composition for organic transistor production, the solubility of the organic semiconductor material was observed. Herein, the solubility was visually evaluated, and a case where no insoluble material was observed was rated as “∘: dissolution”, and a case where an insoluble material was observed was rated as “x: not dissolution”. The same shall apply hereafter.
(§2) The resulting mixture was heated in a nitrogen atmosphere under a light-shielding condition at 100° C. for about 2 hours, preparing a composition for organic transistor production. With respect to the resulting composition for organic transistor production, the solubility of the organic semiconductor material was observed.

Data set [2] in a line: Visual solubility of pentacene in solvent for organic transistor production. As to the method: as §1
A short description of data set [3]: Visual solubility of DNTT in solvent for organic transistor production. As to the method: as §1, §2
The nature of data set [4]: Visual solubility of Rubrene in solvent for organic transistor production. It is filed as physicochemical. The conditions noted are these: summary of Examples, 100° C. As to the method:
as §1
Rubrene (compound represented by formula (2-1)) (produced by Tokyo Chemical Industry Co., Ltd.) was used as an organic semiconductor material, and each solvent for organic transistor production shown in Table 2 was used under an environment of 20° C., providing a mixture including the organic semiconductor material in a concentration of 4.00% by weight to 5.00% by weight. The resulting mixture was heated in a nitrogen atmosphere under a light-shielding condition at 100° C. for about 2 hours, preparing a composition for organic transistor production. With respect to the resulting composition for organic transistor production, the solubility of the organic semiconductor material was observed.

Read-outs that look alike come from different tables or passages of the source.

In the case of `CN1CCN(C)C1=O` [1,3-dimethyl-2-imidazolidinone], the “solubility of DPh-BTBT in the solvent compared with tetralin and 1,2,4-trichlorobenzene” value in data set [1] is on record as “better”. For the same compound, the “solubility of pentacene in the solvent compared with tetralin and 1,2,4-trichlorobenzene” value in data set [2] is recorded as “better”. In data set [3], the “solubility of DNTT in the solvent compared with tetralin and 1,2,4-trichlorobenzene” value is given as “better”. Also, the “solubility of Rubrene in the solvent compared with tetralin and 1,2,4-trichlorobenzene” value in data set [4] is recorded as “excellent”.

Regarding `CN1CCCN(C)C1=O` [1,3-dimethyl-3,4,5,6-tetrahydro-2(1H)-pyrimidinone], the “solubility of DPh-BTBT in the solvent compared with tetralin and 1,2,4-trichlorobenzene” value in data set [1] (summary of Examples, 100° C.) was “better”. The “solubility of pentacene in the solvent compared with tetralin and 1,2,4-trichlorobenzene” value in data set [2] (summary of Examples, 100° C.) is recorded as “better”. For the same compound, the “solubility of DNTT in the solvent compared with tetralin and 1,2,4-trichlorobenzene” value in data set [3] (summary of Examples, 100° C.) is listed as “better”. Moreover, the “solubility of Rubrene in the solvent compared with tetralin and 1,2,4-trichlorobenzene” value in data set [4] was “excellent”.

The values above are taken from patent US20150144845A1, “SOLVENT OR SOLVENT COMPOSITION FOR ORGANIC TRANSISTOR PRODUCTION” (DAICEL CORPORATION, priority 2012, published 2015).
